Here are results for 33 compounds from US20040127519A1 (Pharmacia Corporation, priority 2002, published 2004).

Recombinant MAPKAPK2, sequence (P49137 whole entry, species assumed): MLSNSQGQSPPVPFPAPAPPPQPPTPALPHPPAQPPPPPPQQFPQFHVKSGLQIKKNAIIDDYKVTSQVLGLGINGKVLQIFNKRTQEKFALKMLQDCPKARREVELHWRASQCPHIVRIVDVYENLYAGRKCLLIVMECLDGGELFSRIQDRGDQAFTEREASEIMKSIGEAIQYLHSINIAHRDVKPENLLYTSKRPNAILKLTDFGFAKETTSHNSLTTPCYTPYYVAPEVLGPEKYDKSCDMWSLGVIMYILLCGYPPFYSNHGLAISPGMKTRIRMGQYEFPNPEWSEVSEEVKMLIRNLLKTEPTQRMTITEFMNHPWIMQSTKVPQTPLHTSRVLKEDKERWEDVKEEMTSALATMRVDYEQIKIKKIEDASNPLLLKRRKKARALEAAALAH

One test concerns the target Recombinant MAPKAPK2 (Homo sapiens, UniProt P49137). Briefly: Determination of MK-2 IC50 (HSP-peptide phosphorylation, anion exchange resin capture assay). The test is classed as biochemical. The conditions noted are these: MK-2 Avg. IC50, Table 2, tricyclic aminocyanopyridine MK-2 inhibitors. How it is done:
The phosphorylation of HSP-peptide ([…]) by MAPKAPK2 was measured using an anion exchange resin capture assay method. […] The reaction was terminated and [γ^33P]ATP was removed from solution by the addition of 150 μl of AG 1×8 ion exchange resin in 900 mM sodium formate pH 3.0. A 50 μl aliquot of head volume was removed from the quenched reaction mixture and added to a 96-well plate, 150 μl of Microscint-40 (Packard) was added and the amount of phosphorylated-peptide was determined. Allow the Microscint to sit in the plates for 60 minutes prior to counting.
Compounds are evaluated as potential inhibitors of the MK2 kinase by measuring their effects on MK2 phosphorylation of the peptide substrate. Compounds may be screened initially at two concentrations prior to determination of IC50 values. Screening results are expressed as percent inhibition at the concentrations of compound tested. For IC50 value determinations, compounds are tested at six concentrations in ten-fold serial dilutions with each concentration tested in triplicate. Results are expressed as IC50 values in micromolar. The assay is performed at a final concentration of 2% DMSO.
Regarding `CCNc1nc2c(c(NCC)c1C#N)Cc1ccc(OCC)cc1O2` [Example 68], the half-inhibitory concentration (IC50) worked out at 148 µM.

Take `N#Cc1c(N)nc2c(c1N)Cc1cc([N+](=O)[O-])ccc1O2` [Example 60]: the IC50 came out at 62.2 µM.

As to `CNc1c(C#N)c(N)nc2c1Cc1cc(OC)c(OC)cc1O2` [Example 26], the concentration for half-maximal inhibition (IC50) stood at 1.69 µM.

As to `COc1ccc2c(c1O)Oc1nc(N)c(C#N)c(N)c1C2` [Example 15], the 50% inhibitory concentration (IC50) was 0.682 µM.

As for `COc1cc2c(cc1OC)Oc1nc(N)c(C#N)c(NCCN)c1C2` [Example 46], the IC50 was 11.5 µM.

As for `N#Cc1c(N)nc2c(c1N)Cc1ccc(OCCN)cc1O2` [Example 19], the IC50 was determined as 0.82 µM.

As for `COc1ccc2c(c1)Cc1c(nc(N)c(C#N)c1N)O2` [Example 58], the IC50 stood at 43 µM.

In the case of `COc1cccc2c1Oc1nc(N)c(C#N)c(N)c1C2C(C#N)C#N` (centres unmarked) [Example 54], the IC50 came to 21.2 µM.

With `N#Cc1c(N)nc2c(c1N)C(C(C#N)C#N)c1cc(O)ccc1O2` (centres unmarked) [Example 35], the IC50 is 4.22 µM.

Consider `COc1cc2c(cc1OC)Oc1nc(N)c(C#N)c(NCc3ccccc3)c1C2` [Example 55], for which the IC50 came out at 27.4 µM.

Regarding `COc1ccc2c(c1)Cc1c(nc(N)c(C#N)c1N)O2` [Example 53], the IC50 came to 19.7 µM.

The same test, now with this note: MK-2 Avg. IC50, Table I, aminocyanopyridine MK-2 inhibitors.
As to `N#Cc1c(N)nc2c(c1-c1ccco1)CCc1cnccc1-2` [Example 26], the IC50 is 6.48 µM.

In the case of `N#Cc1c(-c2ccco2)cc(-c2c[nH]c3ccccc23)nc1N` [Example 102], the concentration for half-maximal inhibition (IC50) was determined as 87.1 µM.

For `N#Cc1c(-c2ccco2)cc(-c2ccc(B(O)O)cc2)nc1N` [Example 47], the IC50 is 16.7 µM.

On to `COC(=O)c1cccc(-c2c(C#N)c(N)nc3c2CCc2[nH]ncc2-3)c1` [Example 147], for which the IC50 is 191 µM.

For the compound `N#Cc1c(-c2cnc[nH]2)cc(-c2ccccc2)nc1N` [Example 45], the IC50 came to 14.2 µM.

On to `N#Cc1c(-c2ccc(Br)cc2)cc(-c2ccco2)nc1N` [Example 126], for which the IC50 was determined as 130 µM.

Take `N#Cc1c(-c2ccccc2)cc(-c2cccs2)nc1N` [Example 55]: the IC50 is 26.9 µM.

On to `N#Cc1c(-c2ccccc2F)cc(-c2ccc[nH]2)nc1N` [Example 58], for which the 50% inhibitory concentration (IC50) was found to be 29.3 µM.

Regarding `CC(=O)Nc1ccc(-c2c(C#N)c(N)nc3c2CCc2[nH]ncc2-3)cc1` [Example 62], the IC50 turned out to be 35.9 µM.

`N#Cc1c(-c2cnc[nH]2)cc(-c2ccco2)nc1N` [Example 17]: the IC50 is 4.94 µM.

As to `N#Cc1c(N)nc2c(c1N)CC(CCl)O2` (centres unmarked) [Example 44], the IC50 was determined as 13.4 µM.

As for `CC1(C)Cc2n[nH]cc2-c2nc(N)c(C#N)c(-c3ccco3)c21` [Example 114], the IC50 is 109 µM.

`N#Cc1c(-c2ccco2)cc(-c2ccc3c(c2)Nc2ccccc2S3)nc1N` [Example 136]: the IC50 was 158 µM.

For the compound `N#Cc1c(N)nc2c(c1-c1ccco1)CCc1c[nH]cc1-2` [Example 24], the IC50 was determined as 6.2 µM.

In the case of `N#Cc1c(-c2ccco2)cc(-c2ccc(S(N)(=O)=O)cc2)nc1N` [Example 46], the IC50 is 16.1 µM.

Turning to `N#Cc1c(-c2ccccc2O)cc(-c2ccco2)nc1N` [Example 146], the half-inhibitory concentration (IC50) amounted to 185 µM.

On to `N#Cc1c(-c2ccccc2F)cc(-c2cccc(O)c2)nc1N` [Example 51], for which the IC50 stood at 24.2 µM.

With `N#Cc1c(N)nc2ccccc2c1C(=O)O` [Example 137], the IC50 was 161 µM.

Regarding `N#Cc1c(-c2ccco2)cc(-c2ccc(-n3ccnc3)cc2)nc1N` [Example 120], the IC50 was found to be 121 µM.

Turning to `N#Cc1c(-c2cnc[nH]2)cc(-c2ccc(O)cc2)nc1N` [Example 12], the concentration for half-maximal inhibition (IC50) came out at 3.62 µM.

The subject of a further test is TNFα production. Briefly: Lipopolysaccharide (LPS)-induced TNFα production in rats (Rat LPS assay, serum TNFα ELISA). In kind it is in vivo, Lewis rats. The settings on record: 20 mpk (IP).
Consider `C=CCNc1sc2c(-c3ccc(Br)cc3)c(C#N)c(N)nc2c1C#N` [Example 224, 2-(allylamino)-5-amino-7-(4-bromophenyl)thieno[3,2-b]pyridine-3,6-dicarbonitrile], for which 20 mg/kg produced 60% inhibition.

Regarding `N#Cc1c(N)nc2c(c1-c1cccnc1)CCCCCC2` [Example 225, 2-amino-4-pyridin-3-yl-5,6,7,8,9,10-hexahydrocycloocta[b]pyridine-3-carbonitrile], the inhibition at 20 mg/kg was 88%.

For a further test, the system named is U937 cell TNFα release. Briefly: U937 Cell TNFα Release Assay (LPS-stimulated, TNFα ELISA). The test is classed as cell-based. The settings on record: Homo sapiens, U-937, U937 cells. How it is done: U937 Cell TNFα Release Assay
The human monocyte-like cell line, U937 (ATCC #CRL-1593.2), is cultured in RPMI1640 media with 10% heat-inactivated fetal calf serum (GIBCO), glutamine and pen/strep at 37° C. and 5% CO2. Differentiation of U937 to monocytic/macrophage-like cells is induced by the addition of phorbol12-myristate 13-acetate (Sigma) at final concentration of 20 ng/ml to a culture of U937 cells at ˜0.5 million cells/ml and incubated for 24 hrs. The cells are centrifuged, washed with PBS and resuspended in fresh media without PMA and incubated for 24 hrs. Cells adherent to the culture flask are harvested by scraping, centrifugation, and resuspended in fresh media to 2 million cells/ml, and 0.2 ml is aliquoted to each of 96 wells in flat-bottom plate. Cells are then incubated for an additional 24 hrs to allow for recovery. […]
ELISA plates (NUNC-Immuno™ Plate Maxisorb™ Surface) were coated with purified mouse monoclonal IgG1 anti-human TNFα antibody (R&D Systems #MAB610; 1.25 ug/ml in sodium bicarbonate pH 8.0, 0.1 ml/well) and incubated at 4° C. […] Enzymatic conversion of ABTS to colored product was measured after 5-30 minutes using a SpectroMax 340 spectrophotometer (Molecular Devices) at 405 nm. TNF levels were quantitated from a recombinant human TNFα (R&D Systems #210-TA-010) standard curve using a quadratic parameter fit generated by SoftMaxPRO software. […]
The compound `C=CCNc1sc2c(-c3ccc(Br)cc3)c(C#N)c(N)nc2c1C#N` [Example 224, 2-(allylamino)-5-amino-7-(4-bromophenyl)thieno[3,2-b]pyridine-3,6-dicarbonitrile] yielded a half-maximal inhibitory concentration (IC50) of 2.9 µM.

The compound `N#Cc1c(N)nc2c(c1-c1cccnc1)CCCCCC2` [Example 225, 2-amino-4-pyridin-3-yl-5,6,7,8,9,10-hexahydrocycloocta[b]pyridine-3-carbonitrile] returned a 50% inhibitory concentration (IC50) of 6.9 µM.
